# Experimental data published in PubChem BioAssay AID1259418 (Broad Institute, 2018).
# Values joined by “and” are separate entries in the source; they are usually repeats but may differ in a detail not shown here. Identical values can stand only once. Inconclusive results are not listed. Active and inactive are the calls of the source.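 Rule for the calls: active = fitted half-maximal concentration of signal decrease at or below twice the sample's top tested concentration; inconclusive = flat curve between -70 and -30 percent, or poor fit; inactive = flat within 30 percent, signal rise, or potency above limit.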
# Target: T. gondii ME49Luc in IFN-y HeLa, luciferase, 72 h
# Experiment: T. gondii growth inhibition with IFN-gamma, dose response, cell-based, ME49Luc, HeLa, luciferase, 72 h (AID 1259418)
row,SMILES,AC50
1,Nc1ncnc2c1ncn2[C@@H]1O[C@H](C[C@@H](N)CC[C@H](N)C(=O)O)[C@@H](O)[C@H]1O,0.907 µM
2,Cc1ccccc1-c1nc(CN2CCN(C(=O)NCCc3ccccc3)CC2)c(C)o1,17.4 µM
3,COc1cccc(-c2ccc(C3[C@@H]4CN(S(=O)(=O)Cc5ccccc5)C[C@H]3N4)cc2)c1 (some centres not stated),12.3 µM and 15.7 µM
4,O=C(c1ccc2c(c1)OCO2)N1C[C@@H]2N[C@H](C1)C2c1ccc(/C=C/c2ccccc2)cc1 (some centres not stated),8.94 µM and 21.9 µM
5,Cc1ccc(S(=O)(=O)N2CCC3(CC2)NCCN=C3NCc2ccc(Cl)cc2)cc1C,8.04 µM
6,O=C(Cc1ccccn1)N1CC(=O)N2[C@H](CO)[C@@H](c3ccc(C#CCC4CCCC4)cc3)[C@H]2C1,15.8 µM
7,CC(C)(Cc1ccc2ccccc2c1)NC[C@@H](O)COc1cccc(Cl)c1C#N,13.3 µM
8,O=C(Cc1cccnc1)N1CC(=O)N2[C@H](C1)[C@@H](c1ccc(/C=C/c3ccccc3)cc1)[C@@H]2CO,19.8 µM
9,Cc1ccc(NC(=O)CN2CCC3(CC2)N=C(c2cccc(Cl)c2)C(=O)N3)cc1,28 µM
10,Cc1cc(C)cc(S(=O)(=O)N2CCC3(CC2)NCCN=C3NCc2ccc(F)cc2)c1,20.5 µM
11,Cc1nc(OCC(=O)Nc2cc(F)ccc2F)c2ccccc2n1,> 39 µM (inactive)
12,O=C(NCc1cccnc1)C1CCN(Cc2cc3ccccc3n2Cc2ccc(F)cc2)CC1,38.3 µM
13,CCc1nc(OCC(=O)NCc2ccccc2)c2ccccc2n1,21.9 µM
14,COc1ccc(Cc2cnc(N)nc2N)cc1OC,23.2 µM
15,Cc1ccccc1-c1nc(CN2CCN(C(=O)NC3CCCC3)CC2)c(C)o1,> 39 µM (inactive)
16,Cc1cc(C)c(S(=O)(=O)N2CCC3(CC2)NCCN=C3NC2CCCCC2)cc1C,6.34 µM
17,CCc1nc(OCC(=O)N(C)c2ccccc2)c2ccccc2n1,24.4 µM
18,Cc1ccc(-c2nc3c(s2)CN(C(=O)Nc2ccc(C)cc2C)CC3)cc1,35 µM
19,Cc1ccc(S(=O)(=O)N2CCC3(CC2)NCCN=C3NCc2ccc(F)c(Cl)c2)c(C)c1,6.21 µM

row,SMILES,AC50
1,CN1c2ccc(-c3ccccc3)cc2[C@H]2[C@H](CCN2C(=O)CC2CC2)[C@@H]1CO,18.8 µM
2,COc1ccccc1-c1nc(Cn2nnc(-c3nc(-c4cccc(C(F)(F)F)c4)no3)c2C)c(C)o1,> 20 µM (inactive)
3,CCOc1ccc(-c2nc(CN3CCN(C(=O)Nc4cc(OC)ccc4OC)CC3)c(C)o2)cc1,38 µM
4,CC(C)C#Cc1ccc([C@H]2[C@@H](C#N)N(C(=O)c3cccc(F)c3)[C@H]2CO)cc1,> 39 µM (inactive)
5,CN(c1ccc(F)cc1)c1nc(-c2ccc(Cl)cc2)nc2ccccc12,13.9 µM
6,CCCNC(=O)c1cc(-c2cnc(NCc3ccccc3)nc2)cn1C,7.07 µM and 17.3 µM
7,O=C(COc1ccc(F)cc1)N1CCC2(CC1)Nc1ccc(Cl)cc1-n1cccc12,17 µM
8,CC(=O)N(C)C1(c2ccccc2)CCN(CCC[C@]2(c3ccc(Cl)c(Cl)c3)CCCN(C(=O)c3ccccc3)C2)CC1,12 µM
9,CCCN(C/C=C/I)C1CCc2cccc(O)c2C1 (configuration not stated),30.9 µM
10,CS(=O)(=O)N1CC(=O)N2[C@H](C1)[C@@H](c1ccc(C#CCC3CCCC3)cc1)[C@@H]2CO,19.2 µM
11,COc1cccc(S(=O)(=O)N2CCCCN3[C@H](CO)[C@H](c4ccc(C#CC5CC5)cc4)[C@H]3C2)c1,10.8 µM and 2.78 µM
12,O=S(=O)(c1ccc2c(c1)CCCC2)N1CCC2(CC1)NCCN=C2NCc1ccc(F)cc1,9.4 µM
13,O=C(CC1N=C2c3ccccc3N=C(SCc3ccc(Cl)cc3)N2C1=O)NCc1cccs1 (configuration not stated),29.4 µM
14,O=C(Cc1ccncc1)N1CCCCN2[C@@H](CO)[C@@H](c3ccc(C#Cc4ccccc4F)cc3)[C@@H]2C1,20.9 µM and 12.3 µM
15,Cc1ccc(CN2CC3CN(Cc4cccc(F)c4)CC3C2)s1 (configuration not stated),9.23 µM
16,COc1ccc2c(c1)NC1(CCN(C(=O)c3c(F)cccc3F)CC1)c1cccn1-2,> 39 µM (inactive)
17,Fc1cccc(CSc2nc(NC3CCCCC3)c3ccccc3n2)c1,> 39 µM (inactive)
18,O=C(c1cnccn1)N1CC(=O)N2[C@H](CO)[C@H](c3ccc(-c4cccc(F)c4)cc3)[C@H]2C1,13.9 µM and 25 µM
